“And” between values parts separate entries of the source, which are not always exact repeats. Equal values may be shown once.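 Compound exposure: 48 hours, 5 concentrations, 96-well plates. GI50: concentration for 50% inhibition of growth.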 The source made the active and inactive calls. Cut-off read from the data, not from the text of the source: active = GI50 up to about 1.1 µM and inactive = higher.
Assays:
Test in all cases: growth of human tumour cells (NCI), 48 h
[1] = test system: 786-0
[2] = test system: A498
[3] = test system: A549
[4] = test system: ACHN
[5] = test system: BT-549
[6] = test system: CAKI-1
[7] = test system: CCRF-CEM
[8] = test system: COLO 205
[9] = test system: DU-145
[10] = test system: EKVX
[11] = test system: HCT-116
[12] = test system: HCT-15
[13] = test system: HL-60
[14] = test system: HOP-62
[15] = test system: HOP-92
[16] = test system: HT-29
[17] = test system: Hs-578T
[18] = test system: IGROV-1
[19] = test system: K562
[20] = test system: KM12
[21] = test system: LOX IMVI
[22] = test system: M14
[23] = test system: MDA-MB-231
[24] = test system: MDA-MB-435
[25] = test system: MDA-N
[26] = test system: MOLT-4
[27] = test system: Malme-3M
[28] = test system: NCI-H226
[29] = test system: NCI-H23
[30] = test system: NCI-H460
[31] = test system: NCI-H522
[32] = test system: NCI/ADR-RES
[33] = test system: OVCAR-3
[34] = test system: OVCAR-5
[35] = test system: OVCAR-8
[36] = test system: PC-3
[37] = test system: RPMI-8226
[38] = test system: RXF 393
[39] = test system: SF-268
[40] = test system: SF-295
[41] = test system: SF-539
[42] = test system: SK-MEL-28
[43] = test system: SK-MEL-2
[44] = test system: SK-MEL-5
[45] = test system: SK-OV-3
[46] = test system: SN12C
[47] = test system: SNB-19
[48] = test system: SNB-75
[49] = test system: SW-620
[50] = test system: T47D
[51] = test system: TK-10
[52] = test system: U-251
[53] = test system: UACC-257
[54] = test system: UACC-62
[55] = test system: UO-31
[56] = test system: MCF7
[57] = test system: SR
[58] = test system: HCC 2998
[59] = test system: OVCAR-4

C=CCCON(C(=O)OC(C)(C)C)c1ccccc1
GI50 [1]: 74 µM (inactive) | GI50 [2]: > 100 µM (inactive) | GI50 [3]: > 100 µM (inactive) | GI50 [4]: > 100 µM (inactive) | GI50 [5]: > 100 µM (inactive) | GI50 [6]: > 100 µM (inactive) | GI50 [7]: 12.2 µM (inactive) | GI50 [8]: > 100 µM (inactive) | GI50 [9]: > 100 µM (inactive) | GI50 [10]: > 100 µM (inactive) | GI50 [11]: 44.6 µM (inactive) | GI50 [12]: > 100 µM | GI50 [13]: 12.4 µM (inactive) | GI50 [14]: > 100 µM (inactive) | GI50 [15]: > 100 µM (inactive) | GI50 [16]: 47.9 µM (inactive) | GI50 [17]: > 100 µM (inactive) | GI50 [18]: > 100 µM (inactive) | GI50 [19]: > 100 µM (inactive) | GI50 [20]: > 100 µM (inactive) | GI50 [21]: > 100 µM (inactive) | GI50 [22]: > 100 µM (inactive) | GI50 [23]: > 100 µM (inactive) | GI50 [24]: > 100 µM (inactive) | GI50 [25]: > 100 µM (inactive) | GI50 [26]: 42.6 µM (inactive) | GI50 [27]: 20 µM (inactive) | GI50 [28]: > 100 µM (inactive) | GI50 [29]: > 100 µM (inactive) | GI50 [30]: > 100 µM (inactive) | GI50 [31]: 43.3 µM (inactive) | GI50 [32]: 67 µM (inactive) | GI50 [33]: > 100 µM (inactive) | GI50 [34]: > 100 µM (inactive) | GI50 [35]: > 100 µM (inactive) | GI50 [36]: 4.12 µM (inactive) | GI50 [37]: 6.44 µM (inactive) | GI50 [38]: > 100 µM (inactive) | GI50 [39]: > 100 µM (inactive) | GI50 [40]: > 100 µM (inactive) | GI50 [41]: > 100 µM (inactive) | GI50 [42]: > 100 µM (inactive) | GI50 [43]: > 100 µM (inactive) | GI50 [44]: > 100 µM (inactive) | GI50 [45]: > 100 µM (inactive) | GI50 [46]: > 100 µM (inactive) | GI50 [47]: > 100 µM (inactive) | GI50 [48]: 82.6 µM (inactive) | GI50 [49]: > 100 µM (inactive) | GI50 [50]: 95.1 µM (inactive) | GI50 [51]: > 100 µM (inactive) | GI50 [52]: > 100 µM (inactive) | GI50 [53]: > 100 µM (inactive) | GI50 [54]: > 100 µM (inactive) | GI50 [55]: > 100 µM (inactive)

c1ccc2c(c1)SC1=Nc3sc4ccccc4[n+]3CN12
GI50 [1]: 25.9 µM (inactive) | GI50 [3]: 1.04 µM (active) | GI50 [4]: 32.8 µM (inactive) | GI50 [5]: 22.8 µM (inactive) | GI50 [6]: 14.2 µM (inactive) | GI50 [7]: 16.6 µM (inactive) | GI50 [8]: 2.13 µM (inactive) | GI50 [9]: 27.8 µM (inactive) | GI50 [10]: 2.15 µM (inactive) | GI50 [11]: 18.5 µM (inactive) | GI50 [12]: 40.2 µM | GI50 [13]: 32.1 µM (inactive) | GI50 [14]: 21.9 µM (inactive) | GI50 [15]: 7.53 µM (inactive) | GI50 [16]: 12.6 µM (inactive) | GI50 [17]: 13.7 µM (inactive) | GI50 [18]: 11.8 µM (inactive) | GI50 [19]: 6.12 µM (inactive) | GI50 [20]: 2.34 µM (inactive) | GI50 [22]: 22 µM (inactive) | GI50 [56]: 16.4 µM (inactive) | GI50 [23]: 18.3 µM (inactive) | GI50 [24]: 19.7 µM (inactive) | GI50 [26]: 11.7 µM (inactive) | GI50 [27]: 10.5 µM (inactive) | GI50 [29]: 6.01 µM (inactive) | GI50 [30]: 15.3 µM (inactive) | GI50 [31]: 2.7 µM (inactive) | GI50 [32]: 30.9 µM (inactive) | GI50 [33]: 2.88 µM (inactive) | GI50 [34]: 15 µM (inactive) | GI50 [35]: 26.4 µM (inactive) | GI50 [36]: 24.8 µM (inactive) | GI50 [37]: 21.8 µM (inactive) | GI50 [39]: 17.4 µM (inactive) | GI50 [40]: 29.4 µM (inactive) | GI50 [41]: 20.5 µM (inactive) | GI50 [43]: 11.4 µM (inactive) | GI50 [44]: 2.52 µM (inactive) | GI50 [45]: 17.2 µM (inactive) | GI50 [46]: 20.8 µM (inactive) | GI50 [47]: 19.9 µM (inactive) | GI50 [57]: 16.9 µM (inactive) | GI50 [49]: 10.4 µM (inactive) | GI50 [50]: 18.5 µM (inactive) | GI50 [51]: 14.8 µM (inactive) | GI50 [52]: 3.3 µM (inactive) | GI50 [53]: 30.7 µM (inactive) | GI50 [54]: 15.5 µM (inactive) | GI50 [55]: 18.5 µM (inactive)

CC(=O)Oc1cc(C)c(OC(C)=O)c2c1[C@H]1CC[C@]3(C)[C@@H](OC(C)=O)CC[C@H]3[C@@H]1CC2
GI50 [1]: 21.8 µM (inactive) | GI50 [2]: 18.7 µM (inactive) | GI50 [3]: 17.5 µM (inactive) | GI50 [4]: 14.6 µM (inactive) | GI50 [5]: 15.9 µM (inactive) | GI50 [6]: 17.5 µM (inactive) | GI50 [7]: 17.9 µM (inactive) | GI50 [9]: 16.6 µM (inactive) | GI50 [10]: 13.5 µM (inactive) | GI50 [58]: 13.9 µM (inactive) | GI50 [11]: 16.6 µM (inactive) | GI50 [12]: 17.5 µM | GI50 [13]: 20 µM (inactive) | GI50 [14]: 19.9 µM (inactive) | GI50 [15]: 11.5 µM (inactive) | GI50 [16]: 17.1 µM (inactive) | GI50 [17]: 23.4 µM (inactive) | GI50 [18]: 17.1 µM (inactive) | GI50 [19]: 23.7 µM (inactive) | GI50 [20]: 15.3 µM (inactive) | GI50 [21]: 15.8 µM (inactive) | GI50 [22]: 16.3 µM (inactive) | GI50 [56]: 20.6 µM (inactive) | GI50 [23]: 17.1 µM (inactive) | GI50 [24]: 14.4 µM (inactive) | GI50 [25]: 14.6 µM (inactive) | GI50 [26]: 11.6 µM (inactive) | GI50 [27]: 17.4 µM (inactive) | GI50 [28]: > 10 µM (inactive) | GI50 [29]: 18.4 µM (inactive) | GI50 [30]: 17.7 µM (inactive) | GI50 [31]: 16.9 µM (inactive) | GI50 [32]: 18.2 µM (inactive) | GI50 [33]: 18.2 µM (inactive) | GI50 [34]: 21.5 µM (inactive) | GI50 [35]: 20.5 µM (inactive) | GI50 [36]: 13.9 µM (inactive) | GI50 [37]: 19.5 µM (inactive) | GI50 [38]: 16.8 µM (inactive) | GI50 [39]: 23.3 µM (inactive) | GI50 [40]: 20.7 µM (inactive) | GI50 [41]: 19.2 µM (inactive) | GI50 [42]: 16.4 µM (inactive) | GI50 [44]: 17.5 µM (inactive) | GI50 [46]: 16.7 µM (inactive) | GI50 [47]: 17.8 µM (inactive) | GI50 [48]: 26.6 µM (inactive) | GI50 [57]: 29.8 µM (inactive) | GI50 [49]: 18.4 µM (inactive) | GI50 [51]: 16.1 µM (inactive) | GI50 [52]: 15.9 µM (inactive) | GI50 [53]: 15.8 µM (inactive) | GI50 [54]: 17.7 µM (inactive) | GI50 [55]: 15.3 µM (inactive)

CN1C=c2c3c(ccc2=C2C=CC4C=C5OCOC5=CC4=C21)OCO3 (stereo not drawn)
GI50 [1]: 1.66 µM (inactive) and 1.31 µM (inactive) | GI50 [5]: 2.15 µM (inactive) and 1.58 µM (inactive) | GI50 [8]: 1.89 µM (inactive) and 1.4 µM (inactive) | GI50 [11]: 1.66 µM (inactive) and 1.02 µM (active) | GI50 [12]: 1.41 µM and 1.7 µM | GI50 [13]: 285 nM (active) and 170 nM (active) | GI50 [14]: 2.28 µM (inactive) and 1.55 µM (inactive) | GI50 [16]: 2.07 µM (inactive) and 1.62 µM (inactive) | GI50 [17]: 1.9 µM (inactive) and 2.65 µM (inactive) | GI50 [18]: 1.99 µM (inactive) and 1.65 µM (inactive) | GI50 [21]: 1.8 µM (inactive) and 1.6 µM (inactive) | GI50 [22]: 1.21 µM (inactive) and 1.73 µM (inactive) | GI50 [23]: 2 µM (inactive) and 1.22 µM (inactive) | GI50 [24]: 1.06 µM (active) and 1.85 µM (inactive) | GI50 [25]: 1.85 µM (inactive) and 1.35 µM (inactive) | GI50 [27]: 2.44 µM (inactive) and 1.6 µM (inactive) | GI50 [29]: 1.53 µM (inactive) and 2.98 µM (inactive) | GI50 [31]: 1.5 µM (inactive) and 1.45 µM (inactive) | GI50 [33]: 871 nM (active) and 1.58 µM (inactive) | GI50 [59]: 1.85 µM (inactive) and 3.11 µM (inactive) | GI50 [36]: 2.96 µM (inactive) and 1.52 µM (inactive) | GI50 [38]: 1.98 µM (inactive) and 1.04 µM (active) | GI50 [39]: 2.42 µM (inactive) and 1.61 µM (inactive) | GI50 [41]: 2.28 µM (inactive) and 1.71 µM (inactive) | GI50 [42]: 1.59 µM (inactive) and 2.89 µM (inactive) | GI50 [43]: 2.69 µM (inactive) and 1.95 µM (inactive) | GI50 [44]: 2.44 µM (inactive) and 1.6 µM (inactive) | GI50 [46]: 1.92 µM (inactive) and 1.56 µM (inactive) | GI50 [48]: 1.87 µM (inactive) and 3.72 µM (inactive) | GI50 [49]: 1.05 µM (active) and 1.58 µM (inactive) | GI50 [50]: 1.75 µM (inactive) and 2.28 µM (inactive) | GI50 [52]: 1.57 µM (inactive) and 2.34 µM (inactive) | GI50 [53]: 3.15 µM (inactive) and 1.76 µM (inactive) | GI50 [55]: 2.1 µM (inactive) and 1.47 µM (inactive)
